Active and inactive are the calls of the source.
Tests used:
[1] = tested on: HEK293; assay: inhibitors of LMP1-driven NF-kB reporter, dose response, cell-based, HEK293, luciferase, cherry-pick (AID 588343); type: functional; conditions: Homo sapiens
[2] = tested on: HEK293; assay: cells; type: functional, cell-based; conditions: Homo sapiens
[3] = target: Nucleotide-binding oligomerization domain-containing protein 2 (Homo sapiens, UniProt Q9HC29); assay: NOD2 signaling inhibitors, cell-based, luminescence, uHTS, HEK293 (AID 1566); type: functional
[4] = tested on: HEK293; assay: NOD1 signaling inhibitors, primary screen, cell-based, luminescence, uHTS (AID 1578); type: functional; conditions: Homo sapiens
[5] = tested on: HEK293; assay: cells; type: functional, cell-based; conditions: Homo sapiens; remark: listed apart in the source
[6] = tested on: HEK293; assay: NOD2 signaling inhibitors in MDP-stimulated cells, cell-based, uHTS, luminescence (AID 2001); type: functional; conditions: Homo sapiens
[7] = tested on: HEK293; assay: cells; type: functional, cell-based; conditions: Homo sapiens; remark: listed apart in the source
[8] = target: T1, Carboxy-terminal domain RNA polymerase II polypeptide A small phosphatase 1 (Homo sapiens, UniProt Q9GZU7); assay: inhibitors of CTDSP1, concentration-response testing, biochemical assay, absorbance-based, actives from ultra-high-throughput screening (AID 540297); type: functional
T1 sequence (Q9GZU7 whole entry): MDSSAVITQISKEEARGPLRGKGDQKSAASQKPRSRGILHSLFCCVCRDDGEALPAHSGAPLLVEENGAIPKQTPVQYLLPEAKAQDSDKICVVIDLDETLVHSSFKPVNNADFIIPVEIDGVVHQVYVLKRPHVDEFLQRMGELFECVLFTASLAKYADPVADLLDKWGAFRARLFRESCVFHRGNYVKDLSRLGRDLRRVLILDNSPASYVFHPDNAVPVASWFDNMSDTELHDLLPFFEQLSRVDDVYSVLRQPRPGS

[9] = target: DNA dC->dU-editing enzyme APOBEC-3G (Homo sapiens, UniProt Q9HC16); type: functional;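 further: Dose-response counterscreen measuring inhibition of APOBEC3G DNA deaminase activity, run while confirming APOBEC3A inhibitors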
[10] = target: DNA dC->dU-editing enzyme APOBEC-3A (Homo sapiens, UniProt P31941); assay: Dose Response confirmation of small molecule APOBEC3A DNA Deaminase Inhibitors via a fluorescence-based single-stranded DNA deaminase assay. [Related pubchem assays (depositor defined):AID493011, AID493024]; type: functional
[11] = growth suppression of PTEN-null colon cells, dose response, cell-based, HCT116 PTEN knockout (AID 1047); type: functional;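 further: HCT116 colon tumor cells with PTEN knocked out; cells exposed to compound for 60 hours before readout; potency for loss of cell viability measured by luminescence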
[12] = growth suppression of beta-catenin-knockout colon cells, dose response, cell-based, HCT116, human colon tumor (AID 1045); type: functional;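 further: HCT116 colon tumor cells with beta catenin knocked out; cells exposed to compound for 60 hours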
[13] = HEp-2 cell cytotoxicity, dose response, cytotoxicity control for RSV inhibitor project, HTS (AID 2410); type: functional; conditions: human respiratory syncytial virus
[14] = tested on: Vero; assay: cells; type: functional; conditions: Chlorocebus sabaeus
[15] = tested on: P388/ADR; assay: cells; type: functional; conditions: Mus musculus
[16] = tested on: P388; assay: cells; type: functional; conditions: Mus musculus
[17] = tested on: SN12K1; assay: cells; type: functional; conditions: Homo sapiens
[18] = target: T2, Adenosylmethionine-8-amino-7-oxononanoate aminotransferase (Mycobacterium tuberculosis, UniProt P9WQ81); assay: Mycobacterium tuberculosis BioA enzyme inhibitor Measured in Biochemical System Using Plate Reader - 2163-02_Inhibitor_Dose_CherryPick_Activity.; type: functional, Mycobacterium tuberculosis UT205
T2 sequence (P9WQ81 whole entry): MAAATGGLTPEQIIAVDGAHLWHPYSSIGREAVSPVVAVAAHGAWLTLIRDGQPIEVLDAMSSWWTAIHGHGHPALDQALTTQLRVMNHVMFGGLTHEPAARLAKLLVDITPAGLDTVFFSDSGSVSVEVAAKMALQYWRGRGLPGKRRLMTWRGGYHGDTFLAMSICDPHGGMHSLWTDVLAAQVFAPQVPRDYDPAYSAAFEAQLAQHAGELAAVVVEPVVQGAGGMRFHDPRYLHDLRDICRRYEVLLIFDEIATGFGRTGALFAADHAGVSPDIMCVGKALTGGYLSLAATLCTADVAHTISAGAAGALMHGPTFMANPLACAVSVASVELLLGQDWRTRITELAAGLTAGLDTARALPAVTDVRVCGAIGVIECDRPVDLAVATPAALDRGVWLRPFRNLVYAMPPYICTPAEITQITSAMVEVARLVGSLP

[19] = Luminescence Cell-Based Dose Response HTS to Identify Activators of Luciferase Translation or Activity in H4 […] Cells. [Related pubchem assays: 1829 (Project Summary), 1814 (Primary HTS)]; type: functional
[20] = target: Cytochrome P450 2C9 (Homo sapiens, UniProt P11712)
[21] = Luminescence Cell-Based Dose Confirmation HTS to Identify Activators of 5'UTR Stem-Loop Driven Alpha-Synuclein mRNA Translation in H4 Neuroglioblastoma Cells. [Related pubchem assays: 1829 (Project Summary), 1814 (Primary HTS)]; type: functional
[22] = tested on: H4; assay: Luminescence Cell-Based Dose Response HTS to Identify Activators of 5'UTR Stem-Loop Driven Prion Protein mRNA Translation in H4 Neuroglioblastoma Cells. [Related pubchem assays: 1829 (Project Summary), 1814 (Primary HTS)]; type: functional; conditions: Homo sapiens
[23] = inhibitors of intracellular T. cruzi replication, confirmation, NIH3T3 host cells, beta-gal luminescence (AID 2044); type: functional, cell-based;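 further: intracellular parasites grown in NIH/3T3 mouse fibroblasts as host cells; luminescent beta-galactosidase reporter signal from transgenic T. cruzi replicating inside host cells; inhibitors lower the luminescence signal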
[24] = cytotoxicity toward NIH3T3 fibroblasts, dose response, counter-screen, cell-based, ATP luminescence, mouse fibroblasts (AID 2010); type: functional;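 further: cells exposed to compound for about 90 hours before reading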

Sequence of Nucleotide-binding oligomerization domain-containing protein 2 (Q9HC29 whole entry, the tested form may be a part): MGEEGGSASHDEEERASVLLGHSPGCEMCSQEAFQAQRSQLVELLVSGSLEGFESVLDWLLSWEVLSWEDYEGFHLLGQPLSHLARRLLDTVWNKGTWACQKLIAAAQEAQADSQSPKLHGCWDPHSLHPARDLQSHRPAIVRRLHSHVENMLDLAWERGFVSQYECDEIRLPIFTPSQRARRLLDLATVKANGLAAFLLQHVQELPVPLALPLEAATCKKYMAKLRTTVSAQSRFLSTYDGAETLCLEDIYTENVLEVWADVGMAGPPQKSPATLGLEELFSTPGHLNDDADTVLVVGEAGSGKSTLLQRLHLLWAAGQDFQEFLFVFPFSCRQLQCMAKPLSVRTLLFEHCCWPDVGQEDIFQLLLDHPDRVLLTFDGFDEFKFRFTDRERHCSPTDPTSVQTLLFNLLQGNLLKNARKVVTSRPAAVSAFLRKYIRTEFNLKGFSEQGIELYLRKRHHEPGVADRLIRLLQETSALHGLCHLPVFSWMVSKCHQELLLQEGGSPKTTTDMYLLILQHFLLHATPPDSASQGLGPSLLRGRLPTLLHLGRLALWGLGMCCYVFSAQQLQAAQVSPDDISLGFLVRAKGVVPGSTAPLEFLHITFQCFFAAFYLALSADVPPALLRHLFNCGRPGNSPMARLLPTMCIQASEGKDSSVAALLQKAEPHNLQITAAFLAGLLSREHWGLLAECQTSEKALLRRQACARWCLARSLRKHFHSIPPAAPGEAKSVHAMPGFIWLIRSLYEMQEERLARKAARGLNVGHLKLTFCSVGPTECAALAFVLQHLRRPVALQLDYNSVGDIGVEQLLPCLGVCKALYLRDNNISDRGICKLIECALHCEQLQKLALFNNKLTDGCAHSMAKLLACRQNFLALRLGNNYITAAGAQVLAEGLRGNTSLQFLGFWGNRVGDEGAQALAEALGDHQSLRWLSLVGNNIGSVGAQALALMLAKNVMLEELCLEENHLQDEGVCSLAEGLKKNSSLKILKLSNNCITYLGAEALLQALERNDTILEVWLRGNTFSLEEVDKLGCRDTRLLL
Sequence of Cytochrome P450 2C9 (P11712 whole entry): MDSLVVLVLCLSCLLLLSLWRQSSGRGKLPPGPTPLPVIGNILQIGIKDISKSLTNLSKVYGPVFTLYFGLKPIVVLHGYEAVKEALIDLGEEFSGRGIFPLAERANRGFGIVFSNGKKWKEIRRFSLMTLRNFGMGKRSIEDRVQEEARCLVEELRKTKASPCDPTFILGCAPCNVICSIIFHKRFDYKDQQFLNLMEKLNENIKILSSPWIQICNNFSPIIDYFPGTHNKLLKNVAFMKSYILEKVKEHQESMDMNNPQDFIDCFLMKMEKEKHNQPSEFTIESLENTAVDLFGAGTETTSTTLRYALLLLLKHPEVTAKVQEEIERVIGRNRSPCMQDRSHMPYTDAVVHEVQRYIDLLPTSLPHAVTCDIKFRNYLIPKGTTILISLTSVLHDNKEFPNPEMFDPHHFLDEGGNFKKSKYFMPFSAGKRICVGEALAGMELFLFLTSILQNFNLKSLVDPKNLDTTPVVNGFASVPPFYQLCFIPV
Sequence of DNA dC->dU-editing enzyme APOBEC-3G (Q9HC16 whole entry): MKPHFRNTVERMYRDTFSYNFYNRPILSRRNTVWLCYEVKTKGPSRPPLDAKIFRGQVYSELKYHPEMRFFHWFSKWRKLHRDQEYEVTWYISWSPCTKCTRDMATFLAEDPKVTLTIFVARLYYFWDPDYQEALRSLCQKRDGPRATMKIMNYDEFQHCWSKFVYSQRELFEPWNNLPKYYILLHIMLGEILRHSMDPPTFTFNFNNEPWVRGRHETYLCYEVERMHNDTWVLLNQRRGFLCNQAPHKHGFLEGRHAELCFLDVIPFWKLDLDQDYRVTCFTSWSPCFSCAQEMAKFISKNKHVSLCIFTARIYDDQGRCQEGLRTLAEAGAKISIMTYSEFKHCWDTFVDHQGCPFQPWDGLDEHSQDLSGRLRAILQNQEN
Sequence of DNA dC->dU-editing enzyme APOBEC-3A (P31941 whole entry): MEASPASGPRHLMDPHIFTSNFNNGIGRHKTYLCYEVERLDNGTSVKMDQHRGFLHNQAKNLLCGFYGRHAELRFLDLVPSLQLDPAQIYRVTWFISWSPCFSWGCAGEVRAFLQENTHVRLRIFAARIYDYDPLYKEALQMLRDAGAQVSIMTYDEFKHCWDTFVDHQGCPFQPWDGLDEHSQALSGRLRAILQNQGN

For `CCn1c2ccccc2c2cc(/C=C(/C#N)C(N)=S)ccc21`, the AC50 [1] was 1.21 µM (active).

In the case of `CC(=O)c1cccc(NS(=O)(=O)c2ccc(NC(=O)N3CCCCC3)cc2)c1`, the IC50 [2] is reported as 14.3 µM (active), the EC50 [3] is reported as 15.6 µM (active) and the EC50 [4] is reported as 3.33 µM (active). For the same compound, the IC50 [5] was > 20 µM (inactive), the IC50 [6] was 11.3 µM (inactive) and the IC50 [7] was > 20 µM (inactive).

For `N#C/C(=C/c1ccc(OCc2ccc(C(=O)O)cc2)cc1)C(=O)Nc1ccccc1`, the IC50 [8] was 5.32 µM (active), the IC50 [9] was 2.36 µM (active) and the IC50 [10] was 1.75 µM (active).

For `O=[N+]([O-])CC(c1ccc(Br)cc1)c1c(O)n[nH]c1-c1ccccc1O` (stereo not given), the EC50 [11] was 9 µM (active), the EC50 [12] was 6.72 µM (active) and the CC50 [13] was 10.3 µM (active). The CC50 [14] was 14.2 µM (active).

In the case of `CCCCC1(C2c3ccccc3Oc3ccccc32)C(=O)N(c2ccccc2)N(c2ccccc2)C1=O`, the GI50 [15] is reported as 17.6 µM (inactive), the GI50 [16] is reported as 9.82 µM (inactive) and the GI50 [17] is reported as 34.8 µM (inactive).

For `NCCCNCCSP(=O)(O)O` [AMIFOSTINE], the GI50 [15] was 84.3 µM (inactive), the GI50 [16] was 54.6 µM (inactive) and the GI50 [17] was > 667 µM (inactive).

In the case of `CN1c2ccc(-c3cccc(F)c3)cc2[C@H]2[C@H](CCN2C(=O)C2CCOCC2)[C@H]1CO`, the AC50 [18] is reported as 0.108 µM (active).

With `Cc1ccc(Nc2c([N+](=O)[O-])nn(-c3ccc4c(c3)OCCO4)[n+]2[O-])cc1F` the IC50 [2] was 0.842 µM (active), the EC50 [3] was > 20 µM (inactive) and the EC50 [4] was > 20 µM (inactive). For the same compound, the AC50 [1] was 0.538 µM (active), the IC50 [5] was > 20 µM (inactive) and the IC50 [6] was > 20 µM (inactive). For the same compound, the IC50 [7] was > 20 µM (inactive).

With `Cc1cc(C)n(C2CCCCC2OC(=O)c2ccccc2F)n1` (stereo not given) the AC50 [1] was > 350 µM (inactive).

With `Cc1nc2nc(SCC(=O)NCc3ccco3)nn2c(C)c1Cc1ccccc1` the AC50 [18] was 0.704 µM (active).

With `CSc1ccc(S(=O)(=O)N2CCC(C(=O)Nc3cccnc3)CC2)cc1` the AC50 [18] was 0.807 µM (active).

For `CC(=O)OCc1cc(=O)n(C)c2c3c4c(cc12)c(C)cc(=O)n4CO3`, the GI50 [15] was 0.531 µM (active), the GI50 [16] was 0.344 µM (active) and the GI50 [17] was 0.843 µM (active).

With `Cn1c(/C=C/CO)c(CO)c2c1C(=O)C=C(N1CC1)C2=O` [APAZIQUONE] the GI50 [15] was 0.506 µM (active), the GI50 [16] was 0.94 µM (active) and the GI50 [17] was 0.0102 µM (active).

In the case of `C#CCSc1nnc(-c2sc(-c3ccccc3)nc2C)n1C`, the AC50 [18] is reported as 2.88 µM (active), the EC50 [19] is reported as 48.9 µM (active) and the AC50 [20] is reported as 17.8 µM (inconclusive). The EC50 [21] was > 120 µM (not active) and the EC50 [22] was 16.9 µM (active).

For `Cc1cccc(N2CCN(C(=O)CCCCCn3c(=S)[nH]c4ccc(N5CCOCC5)cc4c3=O)CC2)c1C`, the IC50 [2] was > 20 µM (inactive), the EC50 [3] was 11.9 µM (active) and the EC50 [4] was 15.1 µM (active). The EC50 [23] was 1.56 µM (active), the IC50 [5] was > 20 µM (inactive) and the IC50 [6] was 11.9 µM (inactive). The CC50 [13] was 26.4 µM (active), the IC50 [7] was > 20 µM (inactive) and the EC50 [24] was > 60 µM (not active).

With `CCOC(=O)C1CCN(S(=O)(=O)c2ccc3c(c2)N(C(C)=O)CC(C)S3)CC1` (stereo not given) the IC50 [2] was 19.7 µM (active), the EC50 [3] was > 20 µM (inactive) and the EC50 [4] was 7.03 µM (active). The IC50 [5] was > 20 µM (inactive), the IC50 [6] was > 20 µM (inactive) and the IC50 [7] was > 20 µM (inactive).

For `Nc1ccn(C2OC(CO)C(O)C2O)c(=O)n1` (stereo not given), the GI50 [15] was 0.05 µM (active), the GI50 [16] was 0.05 µM (active) and the GI50 [17] was 0.07 µM (active).
